PubChem BioAssay (NCI)
Several values for one entry are separate records, joined by “and”; a condition that tells them apart may be missing. Identical values can stand only once.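 1) Cells in 96-well plates. 2) Compound, 48 h, 5 concentrations. 3) Linear interpolation between surrounding doses. 4) Unreached endpoint = highest concentration. At the GI50, growth is halved. TGI is the concentration that stops growth completely.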

The molecules below were run on NCI-H460 lung (assay: growth of human tumour cells (NCI), 48 h).

N=c1n(C(=O)N2CCCC2)c2cc(Cl)ccc2n1C1=NCCN1 was tested, and the TGI was greater than 100 µM.

Each molecule was assayed on OVCAR-4 ovarian (assay: growth of human tumour cells (NCI), 48 h).

Point of comparison: Oc1cccc2c(Cl)ccnc12, TGI 7.45 µM. Against it:
- CCNC(=S)N/N=C/c1cc([N+](=O)[O-])ccc1O — 9.8-fold higher, 72.8 µM
- Cc1cc(N(CCC#N)CCC#N)ccc1/C(N=Nc1ccc(Cl)cc1)=N\NC(=O)c1ccccc1 — higher, > 100 µM
- CCc1ccc(CCN2CCCCC2)nc1 — higher, > 100 µM
- O=C(NNC(=O)c1ccccc1SSc1ccccc1C(=O)NNC(=O)c1ccccc1S)c1ccccc1S — higher, > 100 µM
- O=C1/C(=C/c2ccc(O)cc2)CC/C1=C\c1ccc(O)cc1 — higher, > 100 µM
- CC(C)C1/C(=N/O)CC(c2ccccc2)N(N=O)C1c1ccccc1 (stereo not given) — higher, > 100 µM
- COc1cc(/C=C2\S/C(=N/Nc3nc(-c4ccc(Br)cc4)cs3)NC2=O)cc(OC)c1OC — 11-fold higher, 85 µM
- CCCNC1=C2CC(C)CC(OC)[C@@H](O)[C@H](C)/C=C(\C)C(OC(N)=O)C(OC)/C=C\C=C(/C)C(=O)NC(=CC1=O)C2=O (stereo not given in full) — higher, > 100 µM
- CCC1(O)CC2CC(=O)OC2C1O (stereo not given) — higher, > 100 µM
- C(/c1ccco1)=c1/nc(-c2ccccc2)n2c1nc1ccccc12 — higher, > 100 µM
- Cc1cccc(/C=N/NC(=S)Nc2ccccc2)n1 — higher, > 90.4 µM
- N#CC1=C(N)N(c2ccccc2)C(c2ccco2)C1(C#N)C#N (stereo not given) — 6.6-fold higher, 49 µM
- Cc1cc(=O)[nH]c(NN2C(Cl)C(=O)C2c2ccccc2O)n1 (stereo not given) — higher, > 100 µM
- CC(C)c1ccc(/C=C2/C=C(c3ccc4ccccc4c3)OC2=O)cc1 — higher, > 100 µM
- COc1ccc(/C=C2\CCC(C)C3=C2NC(=S)NC3c2ccc(OC)c(OC)c2)cc1OC (stereo not given) — higher, > 100 µM
- COc1ccc(C(OCC2OC(n3cc(C)c(=O)[nH]c3=O)CC2n2cc(Cn3cc(I)c(=O)[nH]c3=O)nn2)(c2ccccc2)c2ccccc2)cc1 (stereo not given) — higher, > 100 µM
- O=S1(=O)NC(=NCc2c[nH]c3ccccc23)N(c2ccccc2)c2ccncc21 — higher, > 100 µM
- COc1ccc(CNc2nc(NCc3ccc(OC)c(OC)c3)nc(NC3CCCCC3)n2)cc1 — higher, > 100 µM
- C=C(C1=CC(=O)C(C)(C)O1)[C@@H]1CC=C([C@@H]2CC[C@H]3[C@@]2(C)CC[C@H]2C(C)(C)C(=O)[C@H](O)C[C@]32C)[C@H](O)O1 — within 1.5-fold, 10.3 µM
- CC1=CC2C(O1)C1C(=O)C=CC(=O)C1=CC2[N+](=O)[O-] (stereo not given) — 4.2-fold higher, 31.6 µM
- C=C(Br)C(C)(Cl)CCC(Br)C(C)(C)Cl (stereo not given) — higher, > 100 µM
- O=C(CCC(=O)c1ccc(Cl)cc1)NO — higher, > 100 µM
- COc1c(C)c(C/C=C(\C)CCCCO[Si](c2ccccc2)(c2ccccc2)C(C)(C)C)c(OC)c(OC)c1OC — higher, > 46.4 µM
- CN1CCN([C@H]2C[C@H]3[C@@H]4CC=C5C[C@@H](O)CC[C@]5(C)[C@H]4CC[C@]3(C)C2=O)CC1 — higher, > 100 µM
- C[C@@]12C[C@@H](c3ccccc3O1)N1CCCCSC1=N2 — higher, > 100 µM
- CCOC(=O)Nn1c(C)nnc1-c1ccccc1 — higher, > 100 µM
- Cc1cn(C2CC(n3cc(Cn4cc(I)c(=O)[nH]c4=O)nn3)C(CO)O2)c(=O)[nH]c1=O (stereo not given) — higher, > 100 µM
- Cc1cc(O)c2c(=O)c3ccccc3[nH]c2c1 — 10-fold higher, 75.8 µM
- N=c1n(C(=O)N2CCCC2)c2cc(Cl)ccc2n1C1=NCCN1 — higher, > 100 µM

In the case of Cc1c2cnccc2c(C)c2c1c1ccccc1n2CCCN, the GI50 is reported as 0.0661 µM.

Cc1c2cnccc2c(C)c2c1c1ccccc1n2CCCN was tested, and the TGI was 0.665 µM and 0.246 µM.

The molecules below were run on PC-3 prostate (assay: growth of human tumour cells (NCI), 48 h).

Point of comparison: COc1cc(/C=C2\S/C(=N/Nc3nc(-c4ccc(Br)cc4)cs3)NC2=O)cc(OC)c1OC, TGI 18.6 µM. Against it:
- CCNC(=S)N/N=C/c1cc([N+](=O)[O-])ccc1O — higher, > 100 µM
- Cc1cc(N(CCC#N)CCC#N)ccc1/C(N=Nc1ccc(Cl)cc1)=N\NC(=O)c1ccccc1 — higher, > 100 µM
- CCc1ccc(CCN2CCCCC2)nc1 — higher, > 100 µM
- O=C(NNC(=O)c1ccccc1SSc1ccccc1C(=O)NNC(=O)c1ccccc1S)c1ccccc1S — higher, > 74.9 µM
- O=C1/C(=C/c2ccc(O)cc2)CC/C1=C\c1ccc(O)cc1 — higher, > 100 µM
- CC(C)C1/C(=N/O)CC(c2ccccc2)N(N=O)C1c1ccccc1 (stereo not given) — higher, > 100 µM
- CCCNC1=C2CC(C)CC(OC)[C@@H](O)[C@H](C)/C=C(\C)C(OC(N)=O)C(OC)/C=C\C=C(/C)C(=O)NC(=CC1=O)C2=O (stereo not given in full) — higher, > 100 µM
- CCC1(O)CC2CC(=O)OC2C1O (stereo not given) — higher, > 100 µM
- C(/c1ccco1)=c1/nc(-c2ccccc2)n2c1nc1ccccc12 — 2-fold lower, 9.43 µM
- Oc1cccc2c(Cl)ccnc12 — higher, > 100 µM
- Cc1cccc(/C=N/NC(=S)Nc2ccccc2)n1 — higher, > 91.1 µM
- N#CC1=C(N)N(c2ccccc2)C(c2ccco2)C1(C#N)C#N (stereo not given) — 3.3-fold higher, 60.5 µM
- Cc1cc(=O)[nH]c(NN2C(Cl)C(=O)C2c2ccccc2O)n1 (stereo not given) — higher, > 100 µM
- CC(C)c1ccc(/C=C2/C=C(c3ccc4ccccc4c3)OC2=O)cc1 — higher, > 100 µM
- COc1ccc(/C=C2\CCC(C)C3=C2NC(=S)NC3c2ccc(OC)c(OC)c2)cc1OC (stereo not given) — higher, > 31.6 µM
- COc1ccc(C(OCC2OC(n3cc(C)c(=O)[nH]c3=O)CC2n2cc(Cn3cc(I)c(=O)[nH]c3=O)nn2)(c2ccccc2)c2ccccc2)cc1 (stereo not given) — higher, > 100 µM
- O=S1(=O)NC(=NCc2c[nH]c3ccccc23)N(c2ccccc2)c2ccncc21 — higher, > 100 µM
- COc1ccc(CNc2nc(NCc3ccc(OC)c(OC)c3)nc(NC3CCCCC3)n2)cc1 — higher, > 100 µM
- C=C(C1=CC(=O)C(C)(C)O1)[C@@H]1CC=C([C@@H]2CC[C@H]3[C@@]2(C)CC[C@H]2C(C)(C)C(=O)[C@H](O)C[C@]32C)[C@H](O)O1 — 6.9-fold lower, 2.68 µM
- CC1=CC2C(O1)C1C(=O)C=CC(=O)C1=CC2[N+](=O)[O-] (stereo not given) — 2-fold higher, 37.9 µM
- C=C(Br)C(C)(Cl)CCC(Br)C(C)(C)Cl (stereo not given) — higher, > 100 µM
- Cc1c2cnccc2c(C)c2c1c1ccccc1n2CCCN — 29-fold lower, 0.644 µM
- O=C(CCC(=O)c1ccc(Cl)cc1)NO — higher, > 100 µM
- COc1c(C)c(C/C=C(\C)CCCCO[Si](c2ccccc2)(c2ccccc2)C(C)(C)C)c(OC)c(OC)c1OC — higher, > 100 µM
- CN1CCN([C@H]2C[C@H]3[C@@H]4CC=C5C[C@@H](O)CC[C@]5(C)[C@H]4CC[C@]3(C)C2=O)CC1 — higher, > 100 µM
- C[C@@]12C[C@@H](c3ccccc3O1)N1CCCCSC1=N2 — higher, > 100 µM
- CCOC(=O)Nn1c(C)nnc1-c1ccccc1 — higher, > 100 µM
- Cc1cn(C2CC(n3cc(Cn4cc(I)c(=O)[nH]c4=O)nn3)C(CO)O2)c(=O)[nH]c1=O (stereo not given) — higher, > 100 µM
- Cc1cc(O)c2c(=O)c3ccccc3[nH]c2c1 — 4.2-fold higher, 77.3 µM
- N=c1n(C(=O)N2CCCC2)c2cc(Cl)ccc2n1C1=NCCN1 — higher, > 100 µM

Molecule CCCNC1=C2CC(C)CC(OC)[C@@H](O)[C@H](C)/C=C(\C)C(OC(N)=O)C(OC)/C=C\C=C(/C)C(=O)NC(=CC1=O)C2=O (stereo not given in full) has a GI50 of 0.477 µM.

What follows are molecules tested on SK-OV-3 ovarian (assay: growth of human tumour cells (NCI), 48 h).

Point of comparison: Oc1cccc2c(Cl)ccnc12, TGI 96.9 µM. Against it:
- CCNC(=S)N/N=C/c1cc([N+](=O)[O-])ccc1O — higher, > 100 µM
- Cc1cc(N(CCC#N)CCC#N)ccc1/C(N=Nc1ccc(Cl)cc1)=N\NC(=O)c1ccccc1 — higher, > 100 µM
- CCc1ccc(CCN2CCCCC2)nc1 — higher, > 100 µM
- O=C(NNC(=O)c1ccccc1SSc1ccccc1C(=O)NNC(=O)c1ccccc1S)c1ccccc1S — higher, > 100 µM
- O=C1/C(=C/c2ccc(O)cc2)CC/C1=C\c1ccc(O)cc1 — higher, > 100 µM
- CC(C)C1/C(=N/O)CC(c2ccccc2)N(N=O)C1c1ccccc1 (stereo not given) — higher, > 100 µM
- COc1cc(/C=C2\S/C(=N/Nc3nc(-c4ccc(Br)cc4)cs3)NC2=O)cc(OC)c1OC — 2.8-fold lower, 34.7 µM
- CCCNC1=C2CC(C)CC(OC)[C@@H](O)[C@H](C)/C=C(\C)C(OC(N)=O)C(OC)/C=C\C=C(/C)C(=O)NC(=CC1=O)C2=O (stereo not given in full) — higher, > 100 µM
- CCC1(O)CC2CC(=O)OC2C1O (stereo not given) — higher, > 100 µM
- C(/c1ccco1)=c1/nc(-c2ccccc2)n2c1nc1ccccc12 — higher, > 100 µM
- Cc1cccc(/C=N/NC(=S)Nc2ccccc2)n1 — not separable, > 68.7 µM
- N#CC1=C(N)N(c2ccccc2)C(c2ccco2)C1(C#N)C#N (stereo not given) — higher, > 100 µM
- Cc1cc(=O)[nH]c(NN2C(Cl)C(=O)C2c2ccccc2O)n1 (stereo not given) — higher, > 100 µM

Work on CCCNC1=C2CC(C)CC(OC)[C@@H](O)[C@H](C)/C=C(\C)C(OC(N)=O)C(OC)/C=C\C=C(/C)C(=O)NC(=CC1=O)C2=O (stereo not given in full) yielded a GI50 of 0.0747 µM.
